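Cultured in 96-well plates, cells were exposed to test compound for 48 hours across five concentrations. GI50 = concentration required for 50% inhibition of growth. TGI marks complete inhibition of growth.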
Key:
Test in all cases: growth of human tumour cells (NCI), 48 h
[1] = system: RXF 393 renal
[2] = system: KM12 colon
[3] = system: HCT-116 colon
[4] = system: BT-549 breast
[5] = system: SK-MEL-2 melanoma
[6] = system: IGROV1 ovarian
[7] = system: M14 melanoma
[8] = system: HOP-62 NSCLC
[9] = system: RPMI-8226 leukemia
[10] = system: NCI-H460 lung
[11] = system: MCF7 breast
[12] = system: 786-0 renal
[13] = system: TK-10 renal
[14] = system: SNB-75 CNS
[15] = system: K-562 leukemia
[16] = system: SN12C renal
[17] = system: SR leukemia
[18] = system: A549 NSCLC
[19] = system: MDA-MB-231 breast
[20] = system: SNB-19 CNS
[21] = system: DU-145 prostate
[22] = system: CCRF-CEM leukemia
[23] = system: A498 renal
[24] = system: SK-OV-3 ovarian
[25] = system: MDA-MB-435
[26] = system: SK-MEL-28 melanoma
[27] = system: LOX IMVI melanoma
[28] = system: EKVX NSCLC
[29] = system: HL-60(TB) leukemia
[30] = system: PC-3 prostate
[31] = system: NCI-H226 lung
[32] = system: NCI/ADR-RES ovarian
[33] = system: U251 CNS
[34] = system: HCC-2998 colon
[35] = system: NCI-H522 lung
[36] = system: UACC-62 melanoma
[37] = system: NCI-H23 lung
[38] = system: MOLT-4 leukemia
[39] = system: SW-620 colon
[40] = system: HT29 colon
[41] = system: SF-295 CNS
[42] = system: HS 578T breast
[43] = system: OVCAR-8 ovarian
[44] = system: CAKI-1 renal
[45] = system: OVCAR-5 ovarian
[46] = system: T-47D breast
[47] = system: SF-539 CNS
[48] = system: HCT-15 colon
[49] = system: COLO 205 colon
[50] = system: UACC-257 melanoma
[51] = system: HOP-92 NSCLC
[52] = system: OVCAR-4 ovarian
[53] = system: MALME-3M melanoma
[54] = system: UO-31 renal
[55] = system: SF-268 CNS
[56] = system: SK-MEL-5 melanoma
[57] = system: ACHN renal

Question: How did the GI50 [1] turn out when `Oc1ccc(CSc2nnc(-c3ccncc3)n2-c2ccccc2)c2cccnc12` was run?
Answer: 2830 nM

Question: And the TGI [1]?
Answer: 70500 nM

Question: What about the GI50 [2] of the same compound?
Answer: 2270 nM

Question: What about the TGI [2] of the same compound?
Answer: > 100000 nM

Question: What about the GI50 [3] of the same compound?
Answer: 376 nM

Question: And the TGI [3]?
Answer: > 100000 nM

Question: And the GI50 [4]?
Answer: 596 nM

Question: And the TGI [4]?
Answer: > 63100 nM

Question: What about the GI50 [5] of the same compound?
Answer: 628 nM

Question: What about the TGI [5] of the same compound?
Answer: > 100000 nM

Question: What about the GI50 [6] of the same compound?
Answer: 1040 nM

Question: And the TGI [6]?
Answer: > 57000 nM

Question: And the GI50 [7]?
Answer: 765 nM

Question: What about the TGI [7] of the same compound?
Answer: 5960 nM

Question: What about the GI50 [8] of the same compound?
Answer: 773 nM

Question: And the TGI [8]?
Answer: 16300 nM

Question: What about the GI50 [9] of the same compound?
Answer: 391 nM

Question: And the TGI [9]?
Answer: > 100000 nM

Question: And the GI50 [10]?
Answer: 375 nM

Question: And the TGI [10]?
Answer: 14400 nM

Question: And the GI50 [11]?
Answer: 357 nM

Question: What about the TGI [11] of the same compound?
Answer: > 100000 nM

Question: What about the GI50 [12] of the same compound?
Answer: 3400 nM

Question: And the TGI [12]?
Answer: 20000 nM

Question: What about the GI50 [13] of the same compound?
Answer: 3250 nM

Question: And the TGI [13]?
Answer: > 100000 nM

Question: And the GI50 [14]?
Answer: 642 nM

Question: What about the TGI [14] of the same compound?
Answer: 43000 nM

Question: And the GI50 [15]?
Answer: 363 nM

Question: And the TGI [15]?
Answer: > 100000 nM

Question: What about the GI50 [16] of the same compound?
Answer: 385 nM

Question: And the TGI [16]?
Answer: > 100000 nM

Question: What about the GI50 [17] of the same compound?
Answer: 396 nM

Question: What about the TGI [17] of the same compound?
Answer: > 100000 nM

Question: And the GI50 [18]?
Answer: 1750 nM

Question: What about the TGI [18] of the same compound?
Answer: > 100000 nM

Question: What about the GI50 [19] of the same compound?
Answer: 1260 nM

Question: What about the TGI [19] of the same compound?
Answer: > 55600 nM

Question: What about the GI50 [20] of the same compound?
Answer: 453 nM

Question: What about the TGI [20] of the same compound?
Answer: > 89200 nM

Question: And the GI50 [21]?
Answer: 686 nM

Question: What about the TGI [21] of the same compound?
Answer: > 100000 nM

Question: What about the GI50 [22] of the same compound?
Answer: 513 nM

Question: What about the TGI [22] of the same compound?
Answer: > 100000 nM

Question: And the GI50 [23]?
Answer: 2600 nM

Question: And the TGI [23]?
Answer: 8640 nM

Question: And the GI50 [24]?
Answer: 2320 nM

Question: What about the TGI [24] of the same compound?
Answer: > 29400 nM

Question: And the GI50 [25]?
Answer: 462 nM

Question: And the TGI [25]?
Answer: > 100000 nM

Question: And the GI50 [26]?
Answer: 1790 nM

Question: And the TGI [26]?
Answer: > 100000 nM

Question: And the GI50 [27]?
Answer: 471 nM

Question: And the TGI [27]?
Answer: > 27900 nM

Question: What about the GI50 [28] of the same compound?
Answer: 1400 nM

Question: What about the TGI [28] of the same compound?
Answer: 21100 nM

Question: What about the GI50 [29] of the same compound?
Answer: 677 nM

Question: What about the TGI [29] of the same compound?
Answer: 5320 nM

Question: What about the GI50 [30] of the same compound?
Answer: 735 nM

Question: And the TGI [30]?
Answer: > 100000 nM

Question: What about the GI50 [31] of the same compound?
Answer: 3490 nM

Question: What about the TGI [31] of the same compound?
Answer: > 100000 nM

Question: And the GI50 [32]?
Answer: 309 nM

Question: And the TGI [32]?
Answer: > 26400 nM

Question: And the GI50 [33]?
Answer: 422 nM

Question: What about the TGI [33] of the same compound?
Answer: 63600 nM

Question: What about the GI50 [34] of the same compound?
Answer: 3140 nM

Question: What about the TGI [34] of the same compound?
Answer: > 100000 nM

Question: What about the GI50 [35] of the same compound?
Answer: 369 nM

Question: What about the TGI [35] of the same compound?
Answer: > 100000 nM

Question: And the GI50 [36]?
Answer: 1750 nM

Question: And the TGI [36]?
Answer: 7520 nM

Question: And the GI50 [37]?
Answer: 433 nM

Question: And the TGI [37]?
Answer: > 46500 nM

Question: And the GI50 [38]?
Answer: 720 nM

Question: And the TGI [38]?
Answer: > 100000 nM

Question: And the GI50 [39]?
Answer: 542 nM

Question: What about the TGI [39] of the same compound?
Answer: > 100000 nM

Question: What about the GI50 [40] of the same compound?
Answer: 3870 nM

Question: What about the TGI [40] of the same compound?
Answer: > 100000 nM

Question: What about the GI50 [41] of the same compound?
Answer: 1140 nM

Question: What about the TGI [41] of the same compound?
Answer: > 38500 nM

Question: And the GI50 [42]?
Answer: 473 nM

Question: What about the TGI [42] of the same compound?
Answer: > 84800 nM

Question: And the GI50 [43]?
Answer: 493 nM

Question: What about the TGI [43] of the same compound?
Answer: > 100000 nM

Question: And the GI50 [44]?
Answer: 1610 nM

Question: What about the TGI [44] of the same compound?
Answer: > 100000 nM

Question: What about the GI50 [45] of the same compound?
Answer: 3690 nM

Question: And the TGI [45]?
Answer: > 100000 nM

Question: And the GI50 [46]?
Answer: 1440 nM

Question: And the TGI [46]?
Answer: > 45400 nM

Question: And the GI50 [47]?
Answer: 769 nM

Question: And the TGI [47]?
Answer: 31300 nM

Question: And the GI50 [48]?
Answer: 363 nM

Question: And the TGI [48]?
Answer: > 100000 nM

Question: What about the GI50 [49] of the same compound?
Answer: 19200 nM

Question: What about the TGI [49] of the same compound?
Answer: > 80400 nM

Question: And the GI50 [50]?
Answer: 2400 nM

Question: And the TGI [50]?
Answer: > 31300 nM

Question: And the GI50 [51]?
Answer: 192 nM

Question: What about the TGI [51] of the same compound?
Answer: 628 nM

Question: What about the GI50 [52] of the same compound?
Answer: 3180 nM

Question: What about the TGI [52] of the same compound?
Answer: > 100000 nM

Question: And the GI50 [53]?
Answer: 1050 nM

Question: What about the TGI [53] of the same compound?
Answer: > 81500 nM

Question: And the GI50 [54]?
Answer: 451 nM

Question: What about the TGI [54] of the same compound?
Answer: 12800 nM

Question: What about the GI50 [55] of the same compound?
Answer: 804 nM

Question: And the TGI [55]?
Answer: > 100000 nM

Question: And the GI50 [56]?
Answer: 761 nM

Question: What about the TGI [56] of the same compound?
Answer: 5600 nM

Question: What about the GI50 [57] of the same compound?
Answer: 794 nM

Question: And the TGI [57]?
Answer: > 28400 nM

Source: PubChem BioAssay (NCI)
